In the CheMixHub viscosity set:
Several values for one entry are separate records, joined by “and”; a condition that tells them apart may be missing. Identical values can stand only once.

Experiment: xn = mol fraction of the nth substance listed

C[N+](C)(C)CCO.[Cl-] + OCC(O)CO
Conditions | viscosity
293.15 K, 100 kPa, x1 = 0.3 | 519 mPa·s
293.15 K, 100 kPa, x1 = 0.333 | 561.4 mPa·s
293.15 K, 101.3 kPa, x2 = 0.7 | 516.1 mPa·s
293.42 K, 101.33 kPa, x2 = 0.8 | 167.1 mPa·s
293.43 K, 101.33 kPa, x2 = 0.7 | 267.9 mPa·s
294.19 K, 101.33 kPa, x2 = 0.7 | 254.1 mPa·s
294.4 K, 101.33 kPa, x2 = 0.8 | 156.8 mPa·s
295.2 K, 101.33 kPa, x2 = 0.8 | 148.2 mPa·s
295.27 K, 101.33 kPa, x2 = 0.7 | 236.6 mPa·s
296.05 K, 101.33 kPa, x2 = 0.8 | 138.9 mPa·s
296.09 K, 101.33 kPa, x2 = 0.7 | 222.7 mPa·s
296.85 K, 101.33 kPa, x2 = 0.7 | 209.9 mPa·s
296.95 K, 101.33 kPa, x2 = 0.8 | 130 mPa·s
297.09 K, 101 kPa, x1 = 0.333 | 348.4 mPa·s
297.68 K, 101.33 kPa, x2 = 0.8 | 123.2 mPa·s
297.78 K, 101.33 kPa, x2 = 0.7 | 195.3 mPa·s
298.15 K, 100 kPa, x1 = 0.3 | 368 mPa·s
298.15 K, 100 kPa, x1 = 0.33 | 348 mPa·s
298.15 K, 100 kPa, x1 = 0.333 | 259 mPa·s and 386.3 mPa·s
298.15 K, 101 kPa, x1 = 0.167 | 304 mPa·s
298.15 K, 101 kPa, x1 = 0.2 | 353.5 mPa·s and 244 mPa·s
298.15 K, 101 kPa, x1 = 0.25 | 338.7 mPa·s and 261 mPa·s
298.15 K, 101 kPa, x1 = 0.33 | 318.1 mPa·s
298.15 K, 101 kPa, x1 = 0.333 | 200 mPa·s and 283.2 mPa·s
298.15 K, 101.33 kPa, x2 = 0.7 | 301 mPa·s
298.73 K, 101.33 kPa, x2 = 0.7 | 184.5 mPa·s
298.74 K, 101.33 kPa, x2 = 0.8 | 115.2 mPa·s
299.46 K, 101.33 kPa, x2 = 0.7 | 174.9 mPa·s
299.66 K, 101.33 kPa, x2 = 0.8 | 108.3 mPa·s
300.32 K, 101.33 kPa, x2 = 0.7 | 163 mPa·s
300.43 K, 101.33 kPa, x2 = 0.8 | 101.9 mPa·s
301.05 K, 101.33 kPa, x2 = 0.8 | 96.5 mPa·s
301.22 K, 101.33 kPa, x2 = 0.7 | 152.2 mPa·s
301.89 K, 101 kPa, x1 = 0.333 | 263.5 mPa·s
302.07 K, 101.33 kPa, x2 = 0.7 | 144.8 mPa·s
302.09 K, 101.33 kPa, x2 = 0.8 | 90.62 mPa·s
303 K, 101 kPa, x1 = 0.3333 | 428.4 mPa·s
303.03 K, 101.33 kPa, x2 = 0.7 | 137 mPa·s
303.04 K, 101.33 kPa, x2 = 0.8 | 85.38 mPa·s
303.15 K, 100 kPa, x1 = 0.33 | 255.6 mPa·s
303.15 K, 100 kPa, x1 = 0.333 | 290.9 mPa·s
303.15 K, 101 kPa, x1 = 0.2 | 259.6 mPa·s
303.15 K, 101 kPa, x1 = 0.25 | 250.4 mPa·s
303.15 K, 101 kPa, x1 = 0.33 | 239 mPa·s
303.97 K, 101.33 kPa, x2 = 0.7 | 128 mPa·s
303.97 K, 101.33 kPa, x2 = 0.8 | 81.55 mPa·s
304.77 K, 101.33 kPa, x2 = 0.7 | 121.8 mPa·s
304.87 K, 101.33 kPa, x2 = 0.8 | 76.53 mPa·s
305.64 K, 101.33 kPa, x2 = 0.7 | 114.5 mPa·s
305.7 K, 101.33 kPa, x2 = 0.8 | 72.8 mPa·s
306.52 K, 101.33 kPa, x2 = 0.7 | 109 mPa·s
306.58 K, 101.33 kPa, x2 = 0.8 | 69.11 mPa·s
307.07 K, 101 kPa, x1 = 0.333 | 187 mPa·s
307.4 K, 101.33 kPa, x2 = 0.7 | 103.9 mPa·s
307.47 K, 101.33 kPa, x2 = 0.8 | 65.09 mPa·s
308 K, 101 kPa, x1 = 0.3333 | 312 mPa·s
308.15 K, 100 kPa, x1 = 0.3 | 198 mPa·s
308.15 K, 100 kPa, x1 = 0.33 | 190.3 mPa·s
308.15 K, 100 kPa, x1 = 0.333 | 216.8 mPa·s
308.15 K, 101 kPa, x1 = 0.2 | 192.5 mPa·s
308.15 K, 101 kPa, x1 = 0.25 | 187 mPa·s
308.15 K, 101 kPa, x1 = 0.33 | 181.2 mPa·s
308.15 K, 101.3 kPa, x2 = 0.7 | 194.5 mPa·s
308.15 K, 101.33 kPa, x2 = 0.7 | 96.86 mPa·s
308.34 K, 101.33 kPa, x2 = 0.8 | 61.7 mPa·s
309.15 K, 101.33 kPa, x2 = 0.8 | 58.96 mPa·s
309.17 K, 101.33 kPa, x2 = 0.7 | 92 mPa·s
309.94 K, 101.33 kPa, x2 = 0.7 | 88.35 mPa·s
310 K, 101.33 kPa, x2 = 0.8 | 56.2 mPa·s
310.82 K, 101.33 kPa, x2 = 0.8 | 53.22 mPa·s
310.85 K, 101.33 kPa, x2 = 0.7 | 82.38 mPa·s
311.67 K, 101.33 kPa, x2 = 0.8 | 50.6 mPa·s
311.74 K, 101.33 kPa, x2 = 0.7 | 79.15 mPa·s
312.13 K, 101 kPa, x1 = 0.333 | 144.5 mPa·s
312.62 K, 101.33 kPa, x2 = 0.7 | 74.77 mPa·s
312.66 K, 101.33 kPa, x2 = 0.8 | 47.68 mPa·s
313 K, 101 kPa, x1 = 0.3333 | 222.4 mPa·s
313.15 K, 100 kPa, x1 = 0.3 | 148 mPa·s
313.15 K, 100 kPa, x1 = 0.33 | 145.1 mPa·s
313.15 K, 100 kPa, x1 = 0.333 | 165.7 mPa·s and 161.3 mPa·s
313.15 K, 101 kPa, x1 = 0.167 | 119 mPa·s
313.15 K, 101 kPa, x1 = 0.2 | 144.2 mPa·s and 90 mPa·s
313.15 K, 101 kPa, x1 = 0.25 | 140.9 mPa·s and 93 mPa·s
313.15 K, 101 kPa, x1 = 0.33 | 138.6 mPa·s
313.15 K, 101 kPa, x1 = 0.333 | 85 mPa·s
313.4 K, 101.33 kPa, x2 = 0.7 | 70.27 mPa·s
313.68 K, 101.33 kPa, x2 = 0.8 | 45.67 mPa·s
314.3 K, 101.33 kPa, x2 = 0.7 | 67.45 mPa·s
314.49 K, 101.33 kPa, x2 = 0.8 | 43.42 mPa·s
315.23 K, 101.33 kPa, x2 = 0.8 | 41.47 mPa·s
315.26 K, 101.33 kPa, x2 = 0.7 | 64.39 mPa·s
315.79 K, 101.33 kPa, x2 = 0.8 | 40.01 mPa·s
316.19 K, 101.33 kPa, x2 = 0.7 | 60.28 mPa·s
316.96 K, 101.33 kPa, x2 = 0.8 | 38.19 mPa·s
317.25 K, 101.33 kPa, x2 = 0.7 | 57.92 mPa·s
317.43 K, 101 kPa, x1 = 0.333 | 110.5 mPa·s
317.78 K, 101.33 kPa, x2 = 0.8 | 35.41 mPa·s
317.92 K, 101.33 kPa, x2 = 0.7 | 55.4 mPa·s
318 K, 101 kPa, x1 = 0.3333 | 159.6 mPa·s
318.15 K, 100 kPa, x1 = 0.3 | 116 mPa·s
318.15 K, 100 kPa, x1 = 0.333 | 125.2 mPa·s
318.15 K, 101 kPa, x1 = 0.2 | 109 mPa·s
318.15 K, 101 kPa, x1 = 0.25 | 107.2 mPa·s
318.15 K, 101 kPa, x1 = 0.33 | 106.9 mPa·s
318.15 K, 101 kPa, x1 = 0.333 | 91 mPa·s
318.15 K, 101.3 kPa, x2 = 0.7 | 114.4 mPa·s
318.42 K, 101.33 kPa, x2 = 0.8 | 35.11 mPa·s
318.59 K, 101.33 kPa, x2 = 0.7 | 53.65 mPa·s
319.37 K, 101.33 kPa, x2 = 0.8 | 33.09 mPa·s
319.53 K, 101.33 kPa, x2 = 0.7 | 51.45 mPa·s
320.2 K, 101.33 kPa, x2 = 0.8 | 31.05 mPa·s
320.45 K, 101.33 kPa, x2 = 0.7 | 48.65 mPa·s
321.14 K, 101.33 kPa, x2 = 0.8 | 29.69 mPa·s
321.38 K, 101.33 kPa, x2 = 0.7 | 46.23 mPa·s
322.2 K, 101.33 kPa, x2 = 0.7 | 44.48 mPa·s
322.23 K, 101 kPa, x1 = 0.333 | 93.48 mPa·s
323 K, 101 kPa, x1 = 0.3333 | 123.5 mPa·s
323.02 K, 101.33 kPa, x2 = 0.7 | 42.72 mPa·s
323.15 K, 100 kPa, x1 = 0.3 | 89.7 mPa·s
323.15 K, 100 kPa, x1 = 0.33 | 88.7 mPa·s
323.15 K, 100 kPa, x1 = 0.333 | 98.89 mPa·s
323.15 K, 101 kPa, x1 = 0.2 | 83.04 mPa·s
323.15 K, 101 kPa, x1 = 0.25 | 82.18 mPa·s
323.15 K, 101 kPa, x1 = 0.33 | 83.12 mPa·s
323.15 K, 101.3 kPa, x2 = 0.7 | 88.65 mPa·s
